Patent US20020068749A1, “AIDS REMEDY” (priority 1996, published 2002)
In brackets after ≈: the same amount, converted by molar mass.

Legend:
[1] = system: Ritonavir resistant strain; test: Anti-virus activity IC50 against Ritonavir resistant strain; format: cell-based, HIV; conditions: Human immunodeficiency virus 1, read-out: Anti-virus activity IC50
KNI-272 resistant strain = test: microbe, parasite or virus in culture; format: cell-based, HIV; conditions: Human immunodeficiency virus 1, read-out: Anti-virus activity IC50
Description: (§1) A drug resistant strain virus is a resistance strains induced in a cell culture system in vitro while maintaining infection in the presence of each medicament through generations.

HIV Wild strain (IIIB) = test: Anti-virus activity IC50 against wild strain; format: cell-based; conditions: Human immunodeficiency virus 1, IIIB, read-out: Anti-virus activity IC50
[2] = system: Indinavir resistant strain; test: Anti-virus activity IC50 against Indinavir resistant strain; format: cell-based, HIV; conditions: Human immunodeficiency virus 1, read-out: Anti-virus activity IC50
Description: as §1

[3] = system: IIIB strain of HIV-1 in CEM-SS cells; test: Measurement of anti-HIV activity in vitro (XTT method, control of cellular denaturalization due to HIV infection); format: cell-based
Description: An increase in the synergistic anti-virus activity in the combined use of KNI-272 and Saquinavir is shown by a specific experimental example. The anti-virus activity was evaluated as the capability of controlling generation of infectious virus particles in vitro. The effect of cell extinction to HIV infection was calculated when Saquinavir methanesulfonate and KNI-272 respectively or both were added to a culture liquid, to determine the concentration region where a synergistic increase in the anti-virus activity in the combined use of the two compounds is conspicuous. Measurement of the anti-virus activity in vitro was carried out according to the following procedure. In the description hereinafter the concentration of methanesulfonate is indicated as the concentration converted into Saquinavir. The concentration of KNI-272 is indicated as the concentration of the compound itself.
A IIIB strain of HIV-1 was used as an HIV wild strain and CEM-SS cells were used as infected cells in the above-mentioned culture. The amount of HIV sufficient to kill all CEM-SS cells 6 days after inoculation (multiplicy of infection, MOI of 0.01-0.05) was determined and this amount of HIV was added. A 96 well micro-titre plate was used to inoculate 5×10^3 CEM-SS cells per well in this case. At the time of inoculation of cells, a test compound was added to the culture medium to a prescribed concentration. Three specimens were used for each test level. The following controls were used (1) as calorimetric controls: a sample with only a test compound added to the culture medium, (2) as a cytotoxic control for a test compound: a sample with only cells and the test compound added to the culture medium, (3) as a virus control: a sample with the cells inoculated with only a virus, and (4) as a cell survival control, a sample consisting only of cells. In addition, AZT and DDC which are compounds with a known anti-HIV activity were used as positive controls. After the cells were added, they were inoculated with the infecting virus, followed by incubation at 37° C.for 6 days. Cellular denaturalization due to HIV infection was colorimetrically measured for each well. Employing the colorimetry, was the metabolism from XTT Tetrazolium to XTT Formazan was evaluated. This colorimetry is called the XTT method (see Weislow et al., Journal of the National Cancer Institute 81, 577-586 (1989)). After the above-mentioned incubation, a prescribed amount of XTT was added to each well and incubation was continued for a further four hours at 37° C. to measure the amount of XTT Formazan produced by metabolism by means of calorimetric quantitation.
The anti-HIV activity for each experimental level was calculated by comparing the number of undenatured cells measured by the above-mentioned assay with the corresponding number of cells in the four control groups. Specifically, the proportion of cellular denaturalization due to HIV infection controlled by the addition of the test compound was calculated. A systematic deviation between the several experiments was corrected based on the results of AZT and ddC used as positive controls.
In this example, 0 ng/ml and several concentrations in the range of 0.625-10.0 ng/ml of Saquinavir methanesulfonate and 0 ng/ml and several concentrations in the range of 0.313-80.0 ng/ml of KNI-272 were used. The results (anti-HIV activities) obtained under these conditions using either one of these medicaments or both medicaments in combination are shown in Table 1.
With regard to this concentration region wherein no synergistic increase can be seemingly identified, a similar evaluation was carried out adding a larger amount of HIV to qualitatively evaluate the presence or absence of a synergistic effect. […] This affords qualitative results rather than quantitative results.
An increase in the synergistic anti-virus activity in the combined use of KNI-272 and Ritonavir is shown by a specific experimental example. […]

[4] = Dynamics in vivo (concentration in plasma over time) of KNI-272 and Ritonavir in dogs; conditions: for MRT / AUC / Cmax / Tmax: dog, plasma, 15 mg/kg
[5] = po, KNI-272 15 mg/kg p.o., administered after Ritonavir, dogs
[6] = po, KNI-272 15 mg/kg p.o., administered before Ritonavir, dogs

With `CSC[C@H](NC(=O)COc1cccc2cnccc12)C(=O)N[C@@H](Cc1ccccc1)[C@H](O)C(=O)N1CSC[C@H]1C(=O)NC(C)(C)C` [KNI-272, (R)-N-1,1-dimethylethyl-3-[(2S,3S)-2-hydroxy-3-[(R)-2-(5-isoquinolyloxyacetyl)amino-3-methylthiopropanoyl]amino-4-phenylbutanoyl]-1,3-thiazolidine-4-carboxyamide] the IC50 [1] was 0.304 µg/mL (≈ 0.455 µM), the IC50 (KNI-272 resistant strain) was 0.32 µg/mL (≈ 0.479 µM) and the IC50 (HIV Wild strain (IIIB)) was 0.007 µg/mL (≈ 0.0105 µM). The IC50 [2] was 0.01 µg/mL (≈ 0.015 µM), the “Anti-HIV activity (%)” value ([3]; KNI-272 0.313 ng/ml alone (Table 1)) was 4.8% and the “Anti-HIV activity (%)” value ([3]; KNI-272 0.313 ng/ml alone (Table 4)) was 5.6%. For the same compound, the “Anti-HIV activity (%)” value ([3]; KNI-272 0.625 ng/ml alone (Table 1)) was 0.0%, the “Anti-HIV activity (%)” value ([3]; KNI-272 0.625 ng/ml alone (Table 4)) was 2.1% and the “Anti-HIV activity (%)” value ([3]; KNI-272 1.25 ng/ml alone (Table 1)) was 1.2%. The “Anti-HIV activity (%)” value ([3]; KNI-272 1.25 ng/ml alone (Table 4)) was 3.8%, the “Anti-HIV activity (%)” value ([3]; KNI-272 2.5 ng/ml alone (Table 1)) was 11.0% and the “Anti-HIV activity (%)” value ([3]; KNI-272 2.5 ng/ml alone (Table 4)) was 2.2%. The “Anti-HIV activity (%)” value ([3]; KNI-272 5.0 ng/ml alone (Table 1)) was 8.5%, the “Anti-HIV activity (%)” value ([3]; KNI-272 5.0 ng/ml alone (Table 4)) was 0.0% and the “Anti-HIV activity (%)” value ([3]; KNI-272 10.0 ng/ml alone (Table 1)) was 13.1%. The “Anti-HIV activity (%)” value ([3]; KNI-272 10.0 ng/ml alone (Table 4)) was 2.5%, the “Anti-HIV activity (%)” value ([3]; KNI-272 20.0 ng/ml alone (Table 1)) was 15.7% and the “Anti-HIV activity (%)” value ([3]; KNI-272 20.0 ng/ml alone (Table 4)) was 12.8%. For the same compound, the “anti-HIV activity as fraction of that of combined use of 10.0 ng/ml Saquinavir methanesulfonate and 20.0 ng/ml KNI-272” value ([3]; KNI-272 30.0 ng/ml alone) was “⅓”, the “Anti-HIV activity (%)” value ([3]; KNI-272 40.0 ng/ml alone (Table 1)) was 27.6% and the “Anti-HIV activity (%)” value ([3]; KNI-272 40.0 ng/ml alone (Table 4)) was 42.8%. For the same compound, the “anti-HIV activity as fraction of that of combined use of 20.0 ng/ml Ritonavir and 40.0 ng/ml KNI-272” value ([3]; KNI-272 60.0 ng/ml alone) was “about ¾”, the “Anti-HIV activity (%)” value ([3]; KNI-272 80.0 ng/ml alone (Table 1)) was 65.7% and the “Anti-HIV activity (%)” value ([3]; KNI-272 80.0 ng/ml alone (Table 4)) was 100.0%. For the same compound, the Cltot ([4]; KNI-272 15 mg/kg i.v., dogs) was 1.49 h⁻¹ kg⁻¹, the “Vd(ss)” value ([4]; KNI-272 15 mg/kg i.v., dogs) was 0.70 kg⁻¹ and the F ([4]; KNI-272 15 mg/kg p.o., administered after Ritonavir, dogs) was 55.2%. It also gave an F ([4]; KNI-272 15 mg/kg p.o., administered before Ritonavir, dogs) of 4.6%, an MRT ([4]; iv, KNI-272 15 mg/kg i.v., dogs) of 28.2 min and an AUC ([4]; iv, KNI-272 15 mg/kg i.v., independent administration, dogs) of 10100 ng·h/mL. For the same compound, the AUC ([4]; po, KNI-272 15 mg/kg p.o., administered after Ritonavir (100 mg/body p.o., 30 min interval), dogs) was 5570 ng·h/mL, the Cmax [4, 5] was 2800 ng/mL and the MRT [4, 5] was 96.8 min. For the same compound, the Tmax [4, 5] was 30 min, the AUC ([4]; po, KNI-272 15 mg/kg p.o., administered before Ritonavir (100 mg/body p.o., 30 min interval), dogs) was 467 ng·h/mL and the Cmax [4, 6] was 1000 ng/mL. The MRT [4, 6] was 30.8 min, the Tmax [4, 6] was 5 min and the “MRT value (index of the half-life of concentration in blood)” value ([4]; medicaments individually administered) was 30 min.
